ChEMBL document CHEMBL3046151, “Assessment of antithyroid activity of 2,8-disulfanyl-1,9-dihydro-6H-purin-6-one in vitro and in vivo” (2012)
Active and inactive are the calls of the source. No cut-off for these calls is given here.

Legend:
[1] = system: Rattus norvegicus; test: Antithyroid activity in Rattus norvegicus Wistar (rat) assessed as cylindrical follicles in thyroid gland at 20 mg/kg, ip for 21 days by microscopic analysis; type: functional, organism-based; design: dose 20 mg/kg
[2] = system: Rattus norvegicus; test: Antithyroid activity in Rattus norvegicus Wistar (rat) assessed as free triiodothyronine(T3) level in serum at 20 mg/kg, ip for 21 days measured after 21 days by radioimmunoassay (reference value: 8.007 +/- 0.167 pmol/l); type: functional; conditions: route intraperitoneal
[3] = system: Rattus norvegicus; test: Antithyroid activity in Rattus norvegicus Wistar (rat) assessed as free thyroxin(T4) level in serum at 20 mg/kg, ip for 21 days measured after 21 days by radioimmunoassay (reference value: 33.171 +/- 0.474 pmol/l); type: functional; conditions: route intraperitoneal
[4] = Binding affinity to iodine assessed as compound-iodine complex formation by spectrophotometry
[5] = system: Rattus norvegicus; test: Antithyroid activity in Rattus norvegicus Wistar (rat) assessed as little colloid material in epithelium of thyroid gland at 20 mg/kg, ip for 21 days by microscopic analysis; type: functional, organism-based; design: dose 20 mg/kg
[6] = system: Rattus norvegicus; test: Antithyroid activity in Rattus norvegicus Wistar (rat) assessed as thyroid stimulating hormone level in serum at 20 mg/kg, ip for 21 days measured after 21 days by ELISA (reference value: 1.83 +/- 0.307 microi.u/ml); type: functional; conditions: route intraperitoneal

Activity [4]	SMILES	Activity [1]	Activity [2]	Activity [3]	Activity [5]	Activity [6]
Active	Oc1[nH]c(S)nc2nc(S)nc1-2	Active	4.418 pmol/L	20.086 pmol/L	Active	8.126 uIU/ml
–	Cn1ccnc1S [METHIMAZOLE]	Active	5.162 pmol/L	25.096 pmol/L	Active	6.014 uIU/ml
